Test results as given in patent US4518588A, “Process for the preparation of an inclusion complex of N-(1--phenylethyl)-3,3-diphenylpropylamine and the hydrochloride thereof respectively with cyclodextrin” (priority 1981, dated 1985).
Values joined by “and” are separate entries in the source; they are usually repeats but may differ in a detail not shown here. Equal entries are not always repeated. Where two headings read alike, the source gives them in different places. One block for each molecule: values may come before it.

Columns and labels:
[1] = Resorption tests on Sartorius SM 16750 Resorption model, diffusion and resorption rate constants; assay type: in vitro ADME; settings: in vitro; for diffusion constant (Kd) from the intestine: resorption from the intestine
Protocol: (§1) The in vitro tests were justified by the fact that the measurements are much more reproducible than by carrying out the tests in vivo.
The resorption tests were performed on a Sartorius SM 16750 Resorption model, the membranes used were suitable for modelling the resorption from the stomach and from the intestine. On the basis of the test results the diffusion (Kd) and the resorption rate constant (Ki) were calculated for the test substances.

Acute toxicity = settings: mouse, in vivo, dose as phendiline active ingredient, 5% Tween 80; for LD50 at 24 h: observation time 24 hours
[2] = Solubility of phendiline hydrochloride in β-cyclodextrin solutions of various concentration; assay type: physicochemical; settings: 37° C.; for solubility thermodynamic at 3 h: water with beta-cyclodextrin, phendiline equivalents; for β-cyclodextrin mmole / phendiline mmole: 3 hours
Protocol: 0.22 g. (0.6 mmole) of phendiline hydrochloride is stirred at 37° C. for 3 hours in 3 ml. of water and in β-cyclodextrin solutions of various concentration by a magnetic stirrer at 150 rot./min rate. The concentration of the dissolved phendiline hydrochloride is determined by spectrophotometry and expressed in phendiline equivalents.

Solubility in words = assay type: physicochemical
[3] = Determination of dissolved (MG) and resorbed (Mi) active ingredient on Sartorius SM 16751 type model; assay type: in vitro ADME; settings: 100. minute; segments of the gastro-intestinal system, in vitro; FIG. 1
From the text: as §1
The dissolution and the resorption are subsequent processes which depend greatly on each other. Under physiological conditions resorption is partially influenced by the pH relations at the place of the resorption and partially by the time spent by the pharmaceutical at the place of the resorption.
The average spent time in each segment of the gastro-intestinal system and the pH values are as follows:
The determination of the dissolved (MG) and the resorbed (Mi) active ingredient was performed on a Sartorius SM 16751 type Lose model [H. Stricker: Pharm. Ind. 33, 157 (1971); H. Sticker: Drugs in Germany 14, 93 (1971)].
The amount of the resorbed phendiline, phendiline-CD-complex as well as phendiline hydrochloride and phendiline-hydrochloride-CD-complex from the gastro-intestinal tract is shown in FIG. 2 where F stands for the resorbed amount of phendiline, F-CD stands for the resorbed amount of phendiline-cyclodextrine-complex, FHCl stands for the resorbed amount of phendiline-hydrochloride and FHCl-CD stands for the resorbed amount of phendiline-hydrochloride-cyclodextrine-complex.

Thermoanalytical assay = assay type: physicochemical
Protocol: Thermoanalytical assay of the product according to Example 1.
Phendiline starts to evaporate respectively to decompose at 150° C. and 98% mass change can be observed up to 250° C.

[4] = β-cyclodextrin 15 mg./ml. (13.2 mmole/l.)
[5] = β-cyclodextrin 20 mg./ml. (17.6 mmole/l.)
[6] = β-cyclodextrin 25 mg./ml. (22.0 mmole/l.)
[7] = β-cyclodextrin 30 mg./ml. (26.4 mmole/l.)

Molecule: CC(NCCC(c1ccccc1)c1ccccc1)c1ccccc1.Cl (stereo not drawn) [phendiline hydrochloride, N-(1-phenylethyl)-3,3-diphenylpropylamine hydrochloride]
resorption rate constant (Ki) from the intestine [1]: 0.0049 min⁻¹
diffusion constant (Kd) from the intestine [1]: 6.7 × 10^-4 cm^2 min^-1
LD50 at 1 h (Acute toxicity; ip, intraperitoneal, observation time 1 hour): 81.1 mg/kg
LD50 at 24 h (Acute toxicity; po, per os): 522 mg/kg
solubility thermodynamic at 3 h [2, 4]: 4390 µg/mL and 13900 µM
solubility thermodynamic at 3 h [2, 5]: 5950 µg/mL and 18600 µM
solubility thermodynamic at 3 h [2, 6]: 6940 µg/mL and 22000 µM
solubility thermodynamic at 3 h [2, 7]: 7510 µg/mL and 23800 µM
β-cyclodextrin mmole / phendiline mmole [2, 4]: 0.95
β-cyclodextrin mmole / phendiline mmole [2, 5]: 0.95
β-cyclodextrin mmole / phendiline mmole [2, 6]: 1.00
β-cyclodextrin mmole / phendiline mmole [2, 7]: 1.10
solubility in water (Solubility in words): extremely poor

Molecule: CC(NCCC(c1ccccc1)c1ccccc1)c1ccccc1 (stereo not drawn) [phendiline, N-(1-phenylethyl)-3,3-diphenylpropylamine]
resorption rate constant (Ki) from the intestine [1]: 0.0051 min⁻¹
diffusion constant (Kd) from the intestine [1]: 6.9 × 10^-4 cm^2 min^-1
amount dissolved [3]: 75 mg
LD50 at 24 h (Acute toxicity; ip, intraperitoneal): 47.5 mg/kg
LD50 at 72 h (Acute toxicity; po, per os, observation time 72 hours): 512 mg/kg
temperature at which it starts to evaporate respectively to decompose (Thermoanalytical assay; thermoanalytical assay): 150 °C
mass change (Thermoanalytical assay; up to 250° C.): 98%
solubility in water (Solubility in words): very poor
solubility in water (Solubility in words; listed as Phendiline): not soluble in water

decomposition temperature (Thermoanalytical assay; thermoanalytical assay): 270 °C
Molecule: Cyclodextrin

temperature of melting with decomposition (Thermoanalytical assay; thermoanalytical assay): 300 °C
Molecule: β-cyclodextrin
